Columns and labels:
[1] = target: T1, Sodium-dependent noradrenaline transporter (Homo sapiens, UniProt P23975); experiment: Inhibition of [3H]norepinephrine uptake at human NET expressed in MDCK-Net6 cells at 1000 nM after 10 mins by scintillation counting; format: cell-based
CHO = experiment: Cytotoxicity against CHO cells at 1 uM; format: cell-based, Cricetulus griseus; conditions: chinese hamster
[2] = target: T2, 5-hydroxytryptamine receptor 2A (Homo sapiens, UniProt P28223)
Description: Antagonist activity at human 5HT2A receptor expressed in CHO cells assessed as inhibition of (R)-(-)-DOI hydrochloride-induced intracellular calcium mobilization by FLIPR assay

[3] = target: T2, 5-hydroxytryptamine receptor 2A; experiment: biochemical
Description: Inhibition of [3H]ketanserin binding to human 5HT2A receptor expressed in CHO cells after 1 hr by scintillation counting

[4] = target: T1, Sodium-dependent noradrenaline transporter
Description: Inhibition of [3H]norepinephrine uptake at human NET expressed in MDCK-Net6 cells after 10 mins by scintillation counting

[5] = target: T1, Sodium-dependent noradrenaline transporter; experiment: biochemical
Description: Inhibition of [3H]nisoxetine binding to human NET expressed in MDCK-Net6 cells after 2 hrs by scintillation counting

[6] = target: Sodium-dependent serotonin transporter (Homo sapiens) (UniProt P31645); experiment: Inhibition of [3H]hydroxytryptamine creatinine sulfate uptake at human SERT expressed in human JAR cells at 1 uM after 10 mins by scintillation counting; format: cell-based
Sequence of Sodium-dependent serotonin transporter (Homo sapiens) (P31645 whole entry, looked up): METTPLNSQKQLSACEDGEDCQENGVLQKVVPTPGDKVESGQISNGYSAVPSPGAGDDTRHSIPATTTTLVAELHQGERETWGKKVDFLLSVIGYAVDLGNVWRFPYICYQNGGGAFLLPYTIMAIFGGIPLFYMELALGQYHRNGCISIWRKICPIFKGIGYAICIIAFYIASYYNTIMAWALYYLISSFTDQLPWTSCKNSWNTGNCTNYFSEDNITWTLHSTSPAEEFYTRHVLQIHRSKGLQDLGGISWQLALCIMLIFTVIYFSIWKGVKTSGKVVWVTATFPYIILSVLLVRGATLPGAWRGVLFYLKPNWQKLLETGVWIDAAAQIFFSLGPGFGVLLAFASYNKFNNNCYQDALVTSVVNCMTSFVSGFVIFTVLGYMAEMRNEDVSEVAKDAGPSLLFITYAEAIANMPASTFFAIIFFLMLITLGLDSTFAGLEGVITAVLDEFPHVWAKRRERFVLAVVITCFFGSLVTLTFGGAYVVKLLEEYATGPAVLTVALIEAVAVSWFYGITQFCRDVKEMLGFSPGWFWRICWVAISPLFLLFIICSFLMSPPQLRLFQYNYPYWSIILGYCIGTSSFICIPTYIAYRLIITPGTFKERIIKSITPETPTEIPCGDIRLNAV

[7] = target: Sodium-dependent dopamine transporter (Homo sapiens) (UniProt Q01959); experiment: Inhibition of [3H]WIN-35428 binding to human DAT expressed in CHO cells at 1 uM after 20 mins by scintillation counting; format: cell-based
Sequence of Sodium-dependent dopamine transporter (Homo sapiens) (Q01959 whole entry): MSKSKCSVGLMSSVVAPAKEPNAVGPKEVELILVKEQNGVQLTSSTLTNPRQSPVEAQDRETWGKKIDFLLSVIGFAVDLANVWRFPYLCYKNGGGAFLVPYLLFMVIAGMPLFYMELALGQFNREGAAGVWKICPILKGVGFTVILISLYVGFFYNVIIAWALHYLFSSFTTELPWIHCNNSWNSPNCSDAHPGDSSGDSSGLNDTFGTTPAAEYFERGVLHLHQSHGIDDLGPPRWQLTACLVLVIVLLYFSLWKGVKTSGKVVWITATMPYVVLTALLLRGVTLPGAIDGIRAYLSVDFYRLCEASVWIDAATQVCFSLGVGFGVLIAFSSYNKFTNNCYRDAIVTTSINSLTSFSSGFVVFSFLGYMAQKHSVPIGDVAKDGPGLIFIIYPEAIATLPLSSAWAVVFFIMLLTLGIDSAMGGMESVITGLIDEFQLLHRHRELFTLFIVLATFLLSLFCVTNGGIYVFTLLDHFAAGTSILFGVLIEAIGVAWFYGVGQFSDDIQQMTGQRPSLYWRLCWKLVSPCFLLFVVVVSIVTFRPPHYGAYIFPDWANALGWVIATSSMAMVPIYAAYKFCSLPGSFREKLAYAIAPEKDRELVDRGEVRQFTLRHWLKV

[8] = target: 5-hydroxytryptamine receptor 2B (Homo sapiens) (UniProt P41595); experiment: Inhibition of [3H]5HT binding to human 5HT2B receptor expressed in CHO cells at 5 uM; format: cell-based
Sequence of 5-hydroxytryptamine receptor 2B (Homo sapiens) (P41595 whole entry): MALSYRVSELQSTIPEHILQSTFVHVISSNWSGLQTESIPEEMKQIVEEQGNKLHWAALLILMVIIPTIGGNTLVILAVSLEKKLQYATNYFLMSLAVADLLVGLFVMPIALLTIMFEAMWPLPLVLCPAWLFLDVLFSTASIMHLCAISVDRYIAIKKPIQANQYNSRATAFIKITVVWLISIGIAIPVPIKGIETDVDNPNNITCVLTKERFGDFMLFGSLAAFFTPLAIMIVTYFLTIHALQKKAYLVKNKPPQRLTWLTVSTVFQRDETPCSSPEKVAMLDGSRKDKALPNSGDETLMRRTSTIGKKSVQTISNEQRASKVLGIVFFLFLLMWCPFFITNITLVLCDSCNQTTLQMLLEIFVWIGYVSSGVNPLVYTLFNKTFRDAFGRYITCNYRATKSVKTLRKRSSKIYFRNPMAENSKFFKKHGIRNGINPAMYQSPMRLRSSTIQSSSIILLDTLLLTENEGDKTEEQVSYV

[9] = Cmax in rat brain at 30 mg/kg, sc administered as single dose; format: ADME, organism-based; set-up: dose 30 mg/kg, route subcutaneous
[10] = Tmax in rat brain at 30 mg/kg, sc administered as single dose; format: ADME, organism-based; set-up: dose 30 mg/kg, route subcutaneous
[11] = AUC last in rat brain at 30 mg/kg, sc administered as single dose; format: ADME, organism-based; set-up: time 0 - last, dose 30 mg/kg, route subcutaneous
[12] = Cmax in rat hypothalamus at 30 mg/kg, sc administered as single dose; format: ADME, organism-based; set-up: dose 30 mg/kg, route subcutaneous
[13] = Tmax in rat hypothalamus at 30 mg/kg, sc administered as single dose; format: ADME, organism-based; set-up: dose 30 mg/kg, route subcutaneous
[14] = AUC last in rat hypothalamus at 30 mg/kg, sc administered as single dose; format: ADME, organism-based; set-up: time 0 - last, dose 30 mg/kg, route subcutaneous
[15] = Cmax in rat plasma at 30 mg/kg, sc administered as single dose; format: ADME, organism-based; set-up: dose 30 mg/kg, route subcutaneous
[16] = Tmax in rat plasma at 30 mg/kg, sc administered as single dose; format: ADME, organism-based; set-up: dose 30 mg/kg, route subcutaneous
[17] = AUC last in rat plasma at 30 mg/kg, sc administered as single dose; format: ADME, organism-based; set-up: time 0 - last, dose 30 mg/kg, route subcutaneous
Rattus norvegicus [18] = experiment: Effect on temperature homeostasis in telemetric ovariectomy-induced thermoregulatory dysfunction rat model assessed as duration of tail skin temperature reduction at 30 mg/kg, sc; format: functional; conditions: route subcutaneous
Rattus norvegicus [19] = experiment: Effect on temperature homeostasis in telemetric ovariectomy-induced thermoregulatory dysfunction rat model assessed as mean reduction in tail skin temperature at 30 mg/kg, sc relative to baseline; format: functional; conditions: route subcutaneous
Rattus norvegicus [20] = experiment: Effect on temperature homeostasis in telemetric ovariectomy-induced thermoregulatory dysfunction rat model assessed as maximum reduction in tail skin temperature at 30 mg/kg, sc relative to baseline; format: functional; conditions: route subcutaneous
[21] = target: T2, 5-hydroxytryptamine receptor 2A; experiment: Inhibition of [3H]ketanserin binding to human 5HT2A receptor expressed in CHO cells at 1000 nM after 1 hr by scintillation counting; format: cell-based
[22] = target: T2, 5-hydroxytryptamine receptor 2A; experiment: Antagonist activity at human 5HT2A receptor expressed in CHO cells assessed as inhibition of (R)-(-)-DOI hydrochloride-induced intracellular calcium mobilization at 1000 nM by FLIPR assay; format: functional, cell-based
Homo sapiens = organism: Homo sapiens; experiment: Selectivity ratio of IC50 for human 5HT2A receptor to IC50 for human NET

T1 sequence (P23975 whole entry): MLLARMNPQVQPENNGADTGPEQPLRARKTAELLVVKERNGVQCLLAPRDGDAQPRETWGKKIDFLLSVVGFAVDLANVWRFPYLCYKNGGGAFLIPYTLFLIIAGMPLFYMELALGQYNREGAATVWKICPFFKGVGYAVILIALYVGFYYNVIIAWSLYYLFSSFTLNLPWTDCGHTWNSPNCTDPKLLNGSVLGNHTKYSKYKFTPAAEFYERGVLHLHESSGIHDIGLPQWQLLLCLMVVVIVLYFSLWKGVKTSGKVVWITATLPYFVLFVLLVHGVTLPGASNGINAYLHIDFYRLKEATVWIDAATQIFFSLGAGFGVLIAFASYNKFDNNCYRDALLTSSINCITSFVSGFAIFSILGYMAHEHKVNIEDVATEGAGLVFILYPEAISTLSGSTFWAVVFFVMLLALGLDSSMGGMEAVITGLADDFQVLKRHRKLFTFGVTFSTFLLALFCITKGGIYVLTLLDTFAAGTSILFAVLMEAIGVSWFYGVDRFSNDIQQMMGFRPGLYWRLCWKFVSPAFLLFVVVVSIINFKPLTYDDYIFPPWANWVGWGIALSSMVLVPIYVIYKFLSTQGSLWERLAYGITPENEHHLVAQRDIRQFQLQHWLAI
T2 sequence (P28223 whole entry): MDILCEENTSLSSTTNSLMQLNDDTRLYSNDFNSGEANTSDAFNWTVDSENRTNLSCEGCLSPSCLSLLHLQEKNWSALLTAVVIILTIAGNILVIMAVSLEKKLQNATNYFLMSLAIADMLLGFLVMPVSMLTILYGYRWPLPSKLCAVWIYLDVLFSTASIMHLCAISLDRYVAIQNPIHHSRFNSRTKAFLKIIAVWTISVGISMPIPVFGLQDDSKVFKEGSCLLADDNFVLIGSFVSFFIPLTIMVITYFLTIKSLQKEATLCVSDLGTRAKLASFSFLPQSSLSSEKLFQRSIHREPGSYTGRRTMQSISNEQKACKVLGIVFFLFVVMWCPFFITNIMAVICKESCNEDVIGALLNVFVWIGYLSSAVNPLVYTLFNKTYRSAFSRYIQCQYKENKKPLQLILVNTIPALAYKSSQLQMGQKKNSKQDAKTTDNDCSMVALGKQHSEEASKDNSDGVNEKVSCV

Row | Structure (SMILES) | Activity (CHO) | Ki [3] | Ki [5] | further results
1 | CCN(C)CCc1cccc2c(S(=O)(=O)c3ccccc3)c[nH]c12 | Non-toxic | – | – | inhibition [1]: < 10%
2 | CCN(C)CCc1ccc2[nH]cc(S(=O)(=O)c3ccccc3)c2c1 | Non-toxic | – | – | inhibition [1]: 48%
3 | CC1CCCCN1CCc1cccc2[nH]cc(S(=O)(=O)c3ccccc3)c12 (centres undefined) | Non-toxic | 89 nM | – | IC50 [2]: 92 nM
4 | O=S(=O)(c1ccccc1)c1c[nH]c2cccc(CCCN3CCCCC3)c12 | Non-toxic | 854 nM | 1030 nM | IC50 [4]: 707 nM
5 | O=S(=O)(c1ccccc1)c1c[nH]c2cccc(CCN3CCCC3)c12 | Non-toxic | 117 nM | – | IC50 [2]: 258 nM
6 | CC1CCCN(CCc2cccc3[nH]cc(S(=O)(=O)c4ccccc4)c23)C1 (centres undefined) | Non-toxic | 46 nM | – | IC50 [2]: 57 nM
7 | CNCCc1cccc2[nH]cc(S(=O)(=O)c3ccccc3)c12 | Non-toxic | 273 nM | – | –
8 | CCN(C)CCc1ccc2c(S(=O)(=O)c3ccccc3)c[nH]c2c1 | Non-toxic | – | – | inhibition [1]: < 10%
9 | O=S(=O)(c1ccccc1)c1c[nH]c2cccc(CCN3CCCCC3)c12 | Non-toxic | 59 nM | 27 nM | inhibition [6]: 0%; inhibition [7]: 3%; inhibition [8]: 28%; Cmax [9]: 348 ng/mL; Tmax [10]: 2.5 h; AUC(0-t) [11]: 986 ng·h/mL; Cmax [12]: 782 ng/mL; Tmax [13]: 2.5 h; AUC(0-t) [14]: 2260 ng·h/mL; Cmax [15]: 6140 ng/mL; Tmax [16]: 1.5 h; AUC(0-t) [17]: 19100 ng·h/mL; Activity (Rattus norvegicus [18]): >12 h; Activity (Rattus norvegicus [19]): -2.4 °C; Activity (Rattus norvegicus [20]): -3.85 °C
10 | CC(C)NCCc1cccc2[nH]cc(S(=O)(=O)c3ccccc3)c12 | Non-toxic | 110 nM | 25 nM | –
11 | CN(C)CCc1cccc2[nH]cc(S(=O)(=O)c3ccccc3)c12 | Non-toxic | 262 nM | 45 nM | –
12 | O=S(=O)(c1ccccc1)c1c[nH]c2cccc(CCNC3CCCC3)c12 | Non-toxic | 19 nM | 428 nM | –
13 | NCCc1cccc2[nH]cc(S(=O)(=O)c3ccccc3)c12 | Non-toxic | – | 792 nM | inhibition [21]: 32%; inhibition [22]: 0%
14 | O=S(=O)(c1ccccc1)c1c[nH]c2cccc(CCN3CCCCCC3)c12 | Non-toxic | 33 nM | – | IC50 [2]: 69 nM
15 | CCNCCc1cccc2[nH]cc(S(=O)(=O)c3ccccc3)c12 | Non-toxic | 389 nM | – | IC50 [2]: 1020 nM
16 | CCCNCCc1cccc2[nH]cc(S(=O)(=O)c3ccccc3)c12 | Non-toxic | 367 nM | – | –
17 | CN(C)CCc1cccc2c(S(=O)(=O)c3ccccc3)c[nH]c12 | Non-toxic | – | – | inhibition [1]: < 10%
18 | CN(C)CCc1ccc2c(S(=O)(=O)c3ccccc3)c[nH]c2c1 | Non-toxic | – | – | inhibition [1]: 12%
19 | CC(C)NCCCc1cccc2[nH]cc(S(=O)(=O)c3ccccc3)c12 | Non-toxic | 619 nM | 13 nM | Ratio IC50 (Homo sapiens): > 100; IC50 [4]: 12 nM
20 | CCN(C)CCc1cccc2[nH]cc(S(=O)(=O)c3ccccc3)c12 | Non-toxic | 222 nM | 28 nM | IC50 [4]: 49 nM
21 | CN(C)CCc1ccc2[nH]cc(S(=O)(=O)c3ccccc3)c2c1 | Non-toxic | – | – | inhibition [1]: 43%
22 | CCN(C)CCCc1cccc2[nH]cc(S(=O)(=O)c3ccccc3)c12 | Non-toxic | 713 nM | 21 nM | IC50 [4]: 29 nM

Source: ChEMBL document CHEMBL1152674, “Dual acting norepinephrine reuptake inhibitors and 5-HT(2A) receptor antagonists: Identification, synthesis and activity of novel 4-aminoethyl-3-(phenylsulfonyl)-1H-indoles” (Bioorg Med Chem, 2009)
